Starred links: 1 amine or outer side, 2 acyl side, 3 side chain; linkers in the order of their positions; H or OH if unused. Positions of bridges follow the written chain, without caps; N, C: chain ends. Non-standard residues stand in square brackets, D forms with d. Residues, ends and D or L forms follow the SMILES beside them. *: point of attachment. Phe(3,4-(OMe)2) = COc1ccc(C[C@H](N)C(=O)O)cc1OC; Trp(7-Me) = Cc1cccc2c(C[C@H](N)C(=O)O)c[nH]c12; Abu(4-yl) = O=C([C@H](CC[*:3])N[*:1])[*:2]; 2Nal = N[C@@H](Cc1ccc2ccccc2c1)C(=O)O; Propanoyl(3,3,3-F3) = O=C(CC(F)(F)F)*; AEF = NCCOc1ccc(C[C@H](N)C(=O)O)cc1; αMeF = C[C@](N)(Cc1ccccc1)C(=O)O; αMeE = C[C@](N)(CCC(=O)O)C(=O)O; Pen = CC(C)(S)[C@H](N)C(=O)O; αMeK = C[C@](N)(CCCCN)C(=O)O; Ac5c = NC1(C(=O)O)CCCC1; Thp = NC1(C(=O)O)CCOCC1; Ac3c = NC1(C(=O)O)CC1; X2 = c1c[nH]c(CN*)n1; Butyryl = CCCC(=O)*; X6 = c1cc(N*)n[nH]1
Target: IL-23R (Homo sapiens, UniProt Q5VWK5)
Sequence (Q5VWK5 24-629): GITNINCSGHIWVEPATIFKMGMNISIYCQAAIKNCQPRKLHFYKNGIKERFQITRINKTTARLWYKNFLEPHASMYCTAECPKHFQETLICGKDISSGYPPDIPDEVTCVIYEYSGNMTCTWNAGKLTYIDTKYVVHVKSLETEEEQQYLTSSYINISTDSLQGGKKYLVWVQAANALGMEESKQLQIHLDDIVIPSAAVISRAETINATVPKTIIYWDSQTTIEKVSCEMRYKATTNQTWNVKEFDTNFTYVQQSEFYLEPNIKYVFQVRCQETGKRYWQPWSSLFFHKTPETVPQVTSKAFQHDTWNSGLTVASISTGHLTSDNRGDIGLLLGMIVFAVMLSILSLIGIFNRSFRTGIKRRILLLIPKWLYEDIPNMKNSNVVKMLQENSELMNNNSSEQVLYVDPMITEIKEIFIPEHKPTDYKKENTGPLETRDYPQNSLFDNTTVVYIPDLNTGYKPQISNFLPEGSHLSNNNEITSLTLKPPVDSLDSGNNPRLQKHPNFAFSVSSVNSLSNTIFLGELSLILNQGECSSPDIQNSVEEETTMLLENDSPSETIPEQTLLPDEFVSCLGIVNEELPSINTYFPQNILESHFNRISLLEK
Assay: cell-based
Settings: PBMC pSTAT3 IC50 (nM), PBMCs from healthy donors, IL-23 5 ng/mL, 30 minutes, phosphorylated STAT3
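Also: cryopreserved PBMCs stimulated at 37 °C in 5% CO2, then lysed, with phosphorylated STAT3 quantified in lysates using a phospho-STAT panel kit.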

SMILES | IC50 [nM]
COc1ccc(C[C@H](NC(=O)[C@@H]2CSCC[C@H](NC(=O)[C@@H](CCCNC(=N)N)NC(C)=O)C(=O)N[C@@H](CCC(N)=O)C(=O)N[C@@H]([C@@H](C)O)C(=O)N[C@@H](Cc3c[nH]c4ccccc34)C(=O)N[C@@H](CCC(N)=O)C(=O)N2)C(=O)N[C@@H](Cc2ccc3ccccc3c2)C(=O)NC2(C(=O)N[C@@](C)(CCC(=O)O)C(=O)N[C@@H](CC(N)=O)C(=O)N[C@@](C)(Cc3ccccc3)C(N)=O)CCOCC2)cc1OC [Compound 41, Ac-[(D)Arg]-[Abu]-Q-T-W-Q-[Cys]-[Phe(3,4-diOMe)]-[2-Nal]-[THP]-[aMeGlu]-N-[a-MePhe]-NH2] (Ac-[dR][Abu(4-yl)]QTWQC[Phe(3,4-(OMe)2)][2Nal][Thp][αMeE]N[αMeF]-NH2; thioether 2-7) | 2500
CC(=O)NCCCC[C@@H]1NC(=O)[C@H](Cc2c[nH]c3c(C)cccc23)NC(=O)[C@H]([C@@H](C)O)NC(=O)[C@H](CC(N)=O)NC(=O)[C@@H](NC(C)=O)C(C)(C)SSC(C)(C)[C@@H](C(=O)N[C@@H](Cc2ccc(OCCN)cc2)C(=O)N[C@@H](Cc2ccc3ccccc3c2)C(=O)NC2(C(=O)N[C@@H](CCC(=O)O)C(=O)N[C@@H](CC(N)=O)C(=O)NC3(C(N)=O)CCOCC3)CC2)NC1=O [Compound 317, MeCO-Pen-N-T-7MeW-K(Ac)-Pen-AEF-2Nal-Acpx-E-N-THP---CONH2] | 13
CC(=O)N[C@H](CCCNC(=N)N)C(=O)N[C@H]1CCSC[C@@H](C(=O)N[C@@H](Cc2ccc(OCCN)cc2)C(=O)N[C@@H](Cc2ccc3ccccc3c2)C(=O)NC2(C(=O)N[C@@H](CCC(=O)O)C(=O)N[C@@H](CC(N)=O)C(=O)N[C@@H](Cc3ccccc3)C(N)=O)CCOCC2)NC(=O)[C@H](CCC(N)=O)NC(=O)[C@H](Cc2c[nH]c3ccccc23)NC(=O)[C@H]([C@@H](C)O)NC(=O)[C@H](CCC(N)=O)NC1=O [Compound 17, Ac-[(D)Arg]-[Abu]-Q-T-W-Q-[Cys]-Phe[4-(2-aminoethoxy)]-[2-Nal]-[THP]-E-N-F-NH2] | 3.4
CC(=O)NCCCC[C@@H]1NC(=O)[C@H](Cc2c[nH]c3c(C)cccc23)NC(=O)[C@H]([C@@H](C)O)NC(=O)[C@H](CC(N)=O)NC(=O)[C@@H](NC(=O)[C@@H](CCCNC(=N)N)NC(C)=O)C(C)(C)SSC(C)(C)[C@@H](C(=O)N[C@@H](Cc2ccc(OCCN)cc2)C(=O)N[C@@H](Cc2ccc3ccccc3c2)C(=O)NC2(C(=O)N[C@@H](CCC(=O)O)C(=O)N[C@@H](CC(N)=O)C(=O)N[C@@](C)(Cc3ccccc3)C(N)=O)CCOCC2)NC1=O [Compound 124, Ac-[(D)Arg]-[Pen]-N-T-[W(7-Me)]-[Lys(Ac)]-[Pen]-Phe[4-(2-aminoethoxy)]-[2-Nal]-[THP]-E-N-[a-MePhe]-NH2] (Ac-[dR][Pen]NT[Trp(7-Me)]K(Ac)[Pen][AEF][2Nal][Thp]EN[αMeF]-NH2; disulfide 2-7) | 11
CC(=O)NCCCC[C@@H]1NC(=O)[C@H](Cc2c[nH]c3c(C)cccc23)NC(=O)[C@H]([C@@H](C)O)NC(=O)[C@H](CC(N)=O)NC(=O)[C@@H](NC(=O)[C@@H](CCCNC(=N)N)NC(C)=O)C(C)(C)SSC(C)(C)[C@@H](C(=O)N[C@@H](Cc2ccc(OCCNC(C)=O)cc2)C(=O)N[C@@H](Cc2ccc3ccccc3c2)C(=O)NC2(C(=O)N[C@@H](CCC(=O)O)C(=O)N[C@@H](CC(N)=O)C(=O)NC3(C(N)=O)CCOCC3)CC2)NC1=O [Compound 308, MeCO-r-Pen-N-T-7MeW-K(Ac)-Pen-AEF(Ac)-2Nal-Acpx-E-N-THP-CONH2] (Ac-[dR][Pen]NT[Trp(7-Me)]K(Ac)[Pen][AEF](Ac)[2Nal][Ac3c]EN[Thp]-NH2; disulfide 2-7) | 8
CC(=O)NCCCC[C@@H]1NC(=O)[C@H](Cc2c[nH]c3ccccc23)NC(=O)[C@H]([C@@H](C)O)NC(=O)[C@H](CC(N)=O)NC(=O)[C@@H](NC(=O)[C@@H](CCCNC(=N)N)NC(C)=O)C(C)(C)SSC(C)(C)[C@@H](C(=O)N[C@@H](Cc2ccc(OCCN)cc2)C(=O)N[C@@H](Cc2ccc3ccccc3c2)C(=O)NC2(C(=O)N[C@@H](CCC(=O)O)C(=O)N[C@@H](CC(N)=O)C(=O)N[C@@](C)(Cc3ccccc3)C(N)=O)CCCC2)NC1=O [Compound 102, Ac-[(D)Arg]-[Pen]-N-T-W-[Lys(Ac)]-[Pen]-Phe[4-(2-aminoethoxy)]-[2-Nal]-[Acvc]-E-N-[a-MePhe]-NH2] (Ac-[dR][Pen]NTWK(Ac)[Pen][AEF][2Nal][Ac5c]EN[αMeF]-NH2; disulfide 2-7) | 8.4
CC(=O)N[C@H](CCCNC(=N)N)C(=O)N[C@@H]1C(=O)N[C@@H](CCC(N)=O)C(=O)N[C@@H]([C@@H](C)O)C(=O)N[C@@H](Cc2c[nH]c3ccccc23)C(=O)N[C@@H](CCC(N)=O)C(=O)N[C@H](C(=O)N[C@@H](Cc2ccc(OCCN)cc2)C(=O)N[C@@H](Cc2ccc3ccccc3c2)C(=O)NC2(C(=O)N[C@@H](CCC(=O)O)C(=O)N[C@@H](CC(N)=O)C(=O)N[C@@H](CC(=O)NCc3ncc[nH]3)C(N)=O)CCOCC2)C(C)(C)SSC1(C)C [Compound 137, Ac-[(D)Arg]-[Pen]-Q-T-W-Q-[Pen]-Phe[4-(2-aminoethoxy)]-[2-Nal]-[THP]-E-N-[(N-(imidazol-2-yl)methyl)Asn]-NH2] (Ac-[dR][Pen]QTWQ[Pen][AEF][2Nal][Thp]END(X2)-NH2; disulfide 2-7) | 14
COc1ccc(C[C@H](NC(=O)[C@H](CC(N)=O)NC(=O)[C@](C)(CCC(=O)O)NC(=O)C2(NC(=O)[C@H](Cc3ccc4ccccc4c3)NC(=O)[C@H](Cc3ccc(OCCN)cc3)NC(=O)[C@@H]3CSCC[C@H](NC(=O)[C@@H](CCCNC(=N)N)NC(C)=O)C(=O)N[C@@H](CCC(N)=O)C(=O)N[C@@H]([C@@H](C)O)C(=O)N[C@@H](Cc4c[nH]c5ccccc45)C(=O)N[C@@H](CCC(N)=O)C(=O)N3)CCOCC2)C(N)=O)cc1OC [Compound 78, Ac-[(D)Arg]-[Abu]-Q-T-W-Q-[Cys]-Phe[4-(2-aminoethoxy)]-[2-Nal]-[THP]-[aMeGlu]-N-[Phe(3,4-diOMe)]-NH2] | 31
CCCC(=O)NCCCC[C@H](NC(=O)C1(NC(=O)[C@H](Cc2ccc3ccccc3c2)NC(=O)[C@H](Cc2ccc(OCCN)cc2)NC(=O)[C@H]2NC(=O)[C@H](CCC(N)=O)NC(=O)[C@H](Cc3c[nH]c4ccccc34)NC(=O)[C@H]([C@@H](C)O)NC(=O)[C@H](CCC(N)=O)NC(=O)[C@@H](NC(=O)[C@@H](CCCNC(=N)N)NC(C)=O)C(C)(C)SSC2(C)C)CCOCC1)C(=O)N[C@@H](CC(N)=O)C(=O)N[C@@H](Cc1ccccc1)C(N)=O [Compound 58, Ac-[(D)Arg]-[Pen]-Q-T-W-Q-[Pen]-Phe[4-(2-aminoethoxy)]-[2-Nal]-[THP]-[Lys(COPr)]-N-F-NH2] (Ac-[dR][Pen]QTWQ[Pen][AEF][2Nal][Thp]K(Butyryl)NF-NH2; disulfide 2-7) | 35
CC(=O)NCCCC[C@@H]1NC(=O)[C@H](Cc2c[nH]c3ccccc23)NC(=O)[C@H]([C@@H](C)O)NC(=O)[C@H](CCC(N)=O)NC(=O)[C@@H](NC(C)=O)C(C)(C)SSC(C)(C)[C@@H](C(=O)N[C@@H](Cc2ccc(OCCN)cc2)C(=O)N[C@@H](Cc2ccc3ccccc3c2)C(=O)N[C@@](C)(CCCCN)C(=O)N[C@@H](CCCCNC(C)=O)C(=O)N[C@@H](CC(N)=O)C(=O)NC2(C(N)=O)CCOCC2)NC1=O [Compound 84, Ac-[Pen]-Q-T-W-[Lys(Ac)]-[Pen]-Phe[4-(2-aminoethoxy)]-[2-Nal]-[a-MeLys]-[Lys(Ac)]-N-[THP]-NH2] (Ac-[Pen]QTWK(Ac)[Pen][AEF][2Nal][αMeK]K(Ac)N[Thp]-NH2; disulfide 1-6) | 54
C[C@@H](O)[C@@H]1NC(=O)[C@H](CCC(N)=O)NC(=O)[C@@H](NC(=O)[C@@H](CCCNC(=N)N)NC(=O)CC(F)(F)F)C(C)(C)SSC(C)(C)[C@@H](C(=O)N[C@@H](Cc2ccc(OCCN)cc2)C(=O)N[C@@H](Cc2ccc3ccccc3c2)C(=O)NC2(C(=O)N[C@@H](CCC(=O)O)C(=O)N[C@@H](CC(N)=O)C(=O)NC3(C(N)=O)CCOCC3)CCOCC2)NC(=O)[C@H](CCC(N)=O)NC(=O)[C@H](Cc2c[nH]c3ccccc23)NC1=O [Compound 5, [3,3,3-Trifluoropropionic acid]-[(D)Arg]-[Pen]-Q-T-W-Q-[Pen]-Phe[4-(2-aminoethoxy)]-[2-Nal]-[THP]-E-N-[THP]-NH2] ({Propanoyl(3,3,3-F3)}-[dR][Pen]QTWQ[Pen][AEF][2Nal][Thp]EN[Thp]-NH2; disulfide 2-7) | 4.7
CC(=O)N[C@H](CCCNC(=N)N)C(=O)N[C@@H]1C(=O)N[C@@H](CCC(N)=O)C(=O)N[C@@H]([C@@H](C)O)C(=O)N[C@@H](Cc2c[nH]c3ccccc23)C(=O)N[C@@H](CCC(N)=O)C(=O)N[C@H](C(=O)N[C@@H](Cc2ccc(OCCN)cc2)C(=O)N[C@@H](Cc2ccc3ccccc3c2)C(=O)NC2(C(=O)N[C@@H](CCC(=O)O)C(=O)N[C@@H](CC(N)=O)C(=O)N[C@@](C)(Cc3ccccc3)C(N)=O)CCOCC2)C(C)(C)SSC1(C)C [Compound 97, Ac-[(D)Arg]-[Pen]-Q-T-W-Q-[Pen]-Phe[4-(2-aminoethoxy)]-[2-Nal]-[THP]-E-N-[a-MePhe]-NH2] (Ac-[dR][Pen]QTWQ[Pen][AEF][2Nal][Thp]EN[αMeF]-NH2; disulfide 2-7) | 31
CC(=O)N[C@H](CCCNC(=N)N)C(=O)N[C@H]1CCSC[C@@H](C(=O)N[C@@H](Cc2ccc(OCCN)cc2)C(=O)N[C@@H](Cc2ccc3ccccc3c2)C(=O)NC2(C(=O)N[C@@](C)(CCC(=O)O)C(=O)N[C@@H](CC(N)=O)C(=O)N[C@@](C)(Cc3ccc(O)cc3)C(N)=O)CCOCC2)NC(=O)[C@H](CCC(N)=O)NC(=O)[C@H](Cc2c[nH]c3ccccc23)NC(=O)[C@H]([C@@H](C)O)NC(=O)[C@H](CCC(N)=O)NC1=O [Compound 44, Ac-[(D)Arg]-[Abu]-Q-T-W-Q-[Cys]-Phe[4-(2-aminoethoxy)]-[2-Nal]-[THP]-[aMeGlu]-N-[aMeTyr]-NH2] | 9.3
CC(=O)N[C@H](CCCNC(=N)N)C(=O)N[C@@H]1C(=O)N[C@@H](CCC(N)=O)C(=O)N[C@@H]([C@@H](C)O)C(=O)N[C@@H](Cc2c[nH]c3ccccc23)C(=O)N[C@@H](CCC(N)=O)C(=O)N[C@H](C(=O)N[C@@H](Cc2ccc(OCCN)cc2)C(=O)N[C@@H](Cc2ccc3ccccc3c2)C(=O)NC2(C(=O)N[C@@H](CCC(=O)O)C(=O)N[C@@H](CC(N)=O)C(=O)N[C@@H](CC(=O)Nc3cc[nH]n3)C(N)=O)CCOCC2)C(C)(C)SSC1(C)C [Compound 133, Ac-[(D)Arg]-[Pen]-Q-T-W-Q-[Pen]-Phe[4-(2-aminoethoxy)]-[2-Nal]-[THP]-E-N-[(N-(3-Pyz))Asn]-NH2] (Ac-[dR][Pen]QTWQ[Pen][AEF][2Nal][Thp]END(X6)-NH2; disulfide 2-7) | 21

— patent US20240383954A1, “PEPTIDE INHIBITORS OF INTERLEUKIN-23 RECEPTOR AND THEIR USE TO TREAT INFLAMMATORY DISEASES” (Janssen Biotech, Inc., priority 2020, published 2024)
